Assay results from PubChem BioAssay (NCI).
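Grown in 96-well plates, cells were treated for 48 hours with each compound at five concentrations. Insufficient inhibition: endpoint recorded as highest concentration tested. GI50 is the concentration that inhibits growth by half. Definition used: TGI = concentration required for complete inhibition of growth.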

Assays:
Experiment in all cases: DTP human tumour cell line panel, 48 h
OVCAR-4 ovarian = tested on: OVCAR-4 ovarian
HCC-2998 colon = tested on: HCC-2998 colon
OVCAR-3 ovarian = tested on: OVCAR-3 ovarian
IGROV1 ovarian = tested on: IGROV1 ovarian
MDA-MB-231 breast = tested on: MDA-MB-231 breast
SNB-75 CNS = tested on: SNB-75 CNS
UO-31 renal = tested on: UO-31 renal
HL-60(TB) leukemia = tested on: HL-60(TB) leukemia
MDA-MB-468 breast = tested on: MDA-MB-468 breast
HCT-15 colon = tested on: HCT-15 colon
COLO 205 colon = tested on: COLO 205 colon
PC-3 prostate = tested on: PC-3 prostate
MOLT-4 leukemia = tested on: MOLT-4 leukemia
SF-539 CNS = tested on: SF-539 CNS
SW-620 colon = tested on: SW-620 colon
CAKI-1 renal = tested on: CAKI-1 renal
BT-549 breast = tested on: BT-549 breast
SF-295 CNS = tested on: SF-295 CNS
A498 renal = tested on: A498 renal
RXF 393 renal = tested on: RXF 393 renal
OVCAR-5 ovarian = tested on: OVCAR-5 ovarian
SNB-19 CNS = tested on: SNB-19 CNS
RPMI-8226 leukemia = tested on: RPMI-8226 leukemia
HCT-116 colon = tested on: HCT-116 colon
MDA-MB-435 = tested on: MDA-MB-435
CCRF-CEM leukemia = tested on: CCRF-CEM leukemia
KM12 colon = tested on: KM12 colon
MALME-3M melanoma = tested on: MALME-3M melanoma
SK-MEL-28 melanoma = tested on: SK-MEL-28 melanoma
ACHN renal = tested on: ACHN renal
HOP-92 NSCLC = tested on: HOP-92 NSCLC
HS 578T breast = tested on: HS 578T breast
SF-268 CNS = tested on: SF-268 CNS
OVCAR-8 ovarian = tested on: OVCAR-8 ovarian
NCI/ADR-RES ovarian = tested on: NCI/ADR-RES ovarian
HT29 colon = tested on: HT29 colon
786-0 renal = tested on: 786-0 renal
UACC-257 melanoma = tested on: UACC-257 melanoma
NCI-H522 lung = tested on: NCI-H522 lung
K-562 leukemia = tested on: K-562 leukemia
DU-145 prostate = tested on: DU-145 prostate
EKVX NSCLC = tested on: EKVX NSCLC
SR leukemia = tested on: SR leukemia
A549 NSCLC = tested on: A549 NSCLC
LOX IMVI melanoma = tested on: LOX IMVI melanoma
MCF7 breast = tested on: MCF7 breast
SK-MEL-5 melanoma = tested on: SK-MEL-5 melanoma
NCI-H460 lung = tested on: NCI-H460 lung
T-47D breast = tested on: T-47D breast
U251 CNS = tested on: U251 CNS
M14 melanoma = tested on: M14 melanoma
UACC-62 melanoma = tested on: UACC-62 melanoma
NCI-H226 lung = tested on: NCI-H226 lung
SN12C renal = tested on: SN12C renal
NCI-H23 lung = tested on: NCI-H23 lung
HOP-62 NSCLC = tested on: HOP-62 NSCLC
SK-OV-3 ovarian = tested on: SK-OV-3 ovarian
TK-10 renal = tested on: TK-10 renal

C[C@@H]1CN(c2ccc3ncc(C#Cc4cncc(C(=O)Nc5ccc(CN6CCN(C)CC6)c(C(F)(F)F)c5)c4)n3n2)C[C@@H](C)O1
GI50 (OVCAR-4 ovarian): 263 nM
TGI (OVCAR-4 ovarian): 1240 nM
GI50 (HCC-2998 colon): 426 nM
TGI (HCC-2998 colon): 1010 nM
GI50 (OVCAR-3 ovarian): 328 nM
TGI (OVCAR-3 ovarian): 1130 nM
GI50 (IGROV1 ovarian): 276 nM
TGI (IGROV1 ovarian): 772 nM
GI50 (MDA-MB-231 breast): 59.5 nM
TGI (MDA-MB-231 breast): 207 nM
GI50 (SNB-75 CNS): 61.6 nM
TGI (SNB-75 CNS): 188 nM
GI50 (UO-31 renal): 128 nM
TGI (UO-31 renal): 462 nM
GI50 (HL-60(TB) leukemia): 421 nM
TGI (HL-60(TB) leukemia): 1170 nM
GI50 (MDA-MB-468 breast): 216 nM
TGI (MDA-MB-468 breast): 452 nM
GI50 (HCT-15 colon): 286 nM
TGI (HCT-15 colon): 632 nM
GI50 (COLO 205 colon): 316 nM
TGI (COLO 205 colon): 719 nM
GI50 (PC-3 prostate): 507 nM
TGI (PC-3 prostate): 1810 nM
GI50 (MOLT-4 leukemia): 297 nM
TGI (MOLT-4 leukemia): 4090 nM
GI50 (SF-539 CNS): 142 nM
TGI (SF-539 CNS): 382 nM
GI50 (SW-620 colon): 277 nM
TGI (SW-620 colon): 768 nM
GI50 (CAKI-1 renal): 1370 nM
TGI (CAKI-1 renal): 3890 nM
GI50 (BT-549 breast): 349 nM
TGI (BT-549 breast): 1200 nM
GI50 (SF-295 CNS): 332 nM
TGI (SF-295 CNS): 1010 nM
GI50 (A498 renal): 678 nM
TGI (A498 renal): 1370 nM
GI50 (RXF 393 renal): 187 nM
TGI (RXF 393 renal): 432 nM
GI50 (OVCAR-5 ovarian): 363 nM
TGI (OVCAR-5 ovarian): 922 nM
GI50 (SNB-19 CNS): 467 nM
TGI (SNB-19 CNS): 1260 nM
GI50 (RPMI-8226 leukemia): 507 nM
TGI (RPMI-8226 leukemia): 2030 nM
GI50 (HCT-116 colon): 270 nM
TGI (HCT-116 colon): 790 nM
GI50 (MDA-MB-435): 281 nM
TGI (MDA-MB-435): 833 nM
GI50 (CCRF-CEM leukemia): 475 nM
TGI (CCRF-CEM leukemia): 1530 nM
GI50 (KM12 colon): 11.4 nM
TGI (KM12 colon): 534 nM
GI50 (MALME-3M melanoma): 276 nM
TGI (MALME-3M melanoma): 826 nM
GI50 (SK-MEL-28 melanoma): 520 nM
TGI (SK-MEL-28 melanoma): 1230 nM
GI50 (ACHN renal): 242 nM
TGI (ACHN renal): 680 nM
GI50 (HOP-92 NSCLC): 124 nM
TGI (HOP-92 NSCLC): 496 nM
GI50 (HS 578T breast): 166 nM
TGI (HS 578T breast): 794 nM
GI50 (SF-268 CNS): 299 nM
TGI (SF-268 CNS): 1130 nM
GI50 (OVCAR-8 ovarian): 366 nM
TGI (OVCAR-8 ovarian): 1050 nM
GI50 (NCI/ADR-RES ovarian): 899 nM
TGI (NCI/ADR-RES ovarian): 1850 nM
GI50 (HT29 colon): 311 nM
TGI (HT29 colon): 979 nM
GI50 (786-0 renal): 407 nM
TGI (786-0 renal): 986 nM
GI50 (UACC-257 melanoma): 737 nM
TGI (UACC-257 melanoma): 3510 nM
GI50 (NCI-H522 lung): 261 nM
TGI (NCI-H522 lung): 525 nM
GI50 (K-562 leukemia): 33.6 nM
TGI (K-562 leukemia): 2730 nM
GI50 (DU-145 prostate): 332 nM
TGI (DU-145 prostate): 923 nM
GI50 (EKVX NSCLC): 227 nM
TGI (EKVX NSCLC): 654 nM
GI50 (SR leukemia): 499 nM
TGI (SR leukemia): 10300 nM
GI50 (A549 NSCLC): 340 nM
TGI (A549 NSCLC): 938 nM
GI50 (LOX IMVI melanoma): 222 nM
TGI (LOX IMVI melanoma): 468 nM
GI50 (MCF7 breast): 229 nM
TGI (MCF7 breast): 679 nM
GI50 (SK-MEL-5 melanoma): 673 nM
TGI (SK-MEL-5 melanoma): 1370 nM
GI50 (NCI-H460 lung): 379 nM
TGI (NCI-H460 lung): 1040 nM
GI50 (T-47D breast): 754 nM
TGI (T-47D breast): 2220 nM
GI50 (U251 CNS): 362 nM
TGI (U251 CNS): 1010 nM
GI50 (M14 melanoma): 280 nM
TGI (M14 melanoma): 771 nM
GI50 (UACC-62 melanoma): 310 nM
TGI (UACC-62 melanoma): 989 nM
GI50 (NCI-H226 lung): 87.9 nM
TGI (NCI-H226 lung): 574 nM
GI50 (SN12C renal): 143 nM
TGI (SN12C renal): 647 nM
GI50 (NCI-H23 lung): 268 nM
TGI (NCI-H23 lung): 617 nM
GI50 (HOP-62 NSCLC): 318 nM
TGI (HOP-62 NSCLC): 968 nM
GI50 (SK-OV-3 ovarian): 510 nM
TGI (SK-OV-3 ovarian): 1570 nM
GI50 (TK-10 renal): 299 nM
TGI (TK-10 renal): 727 nM
